# Laboratory results reported in patent US9271977B2, “Sanglifehrin derivatives and methods for their production” (NeuroVive Pharmaceutical AB, priority 2010, dated 2016).
# Where two headings read alike, the source gives them in different places.
# Experiments:
# [1] = system: Huh5.2 cells; assay: Anti-metabolic effect (MTS) in the replicon cell line; conditions: Huh5.2 cells, 72 hours, MTS metabolic activity
# Protocol: (§1) Antiviral efficacy against genotype 1 HCV may be tested as follows: One day before addition of the test article, Huh5.2 cells, containing the HCV genotype 1b I389Iuc-ubi-neo/NS3-3′/5.1 replicon (Vrolijk et al., 2003) and subcultured in cell growth medium [DMEM (Cat No. 41965039) supplemented with 10% FCS, 1% non-essential amino acids (11140035), 1% penicillin/streptomycin (15140148) and 2% Geneticin (10131027); Invitrogen] at a ratio of 1.3-1.4 and grown for 3-4 days in […] tissue culture flasks (Techno Plastic Products), were harvested and seeded in assay medium (DMEM, 10% FCS, 1% non-essential amino acids, 1% penicillin/streptomycin) at a density of 6500 cells/well (100 uL/well) in 96-well tissue culture microtitre plates (Falcon, Beckton Dickinson for evaluation of the anti-metabolic effect and CulturPlate, Perkin Elmer for evaluation of antiviral effect). The microtitre plates are incubated overnight (37° C., 5% CO2, 95-99% relative humidity), yielding a non-confluent cell monolayer.
# (§2) Dilution series are prepared; each dilution series is performed in at least duplicate. Following assay setup, the microtitre plates are incubated for 72 hours (37° C., 5% CO2, 95-99% relative humidity).
# (§3) For the evaluation of anti-metabolic effects, the assay medium is aspirated, replaced with 75 uL of a 5% MTS (Promega) solution in phenol red-free medium and incubated for 1.5 hours (37° C., 5% CO2, 95-99% relative humidity). Absorbance is measured at a wavelength of 498 nm (Safire^2, Tecan) and optical densities (OD values) are converted to percentage of untreated controls.
# (§4) The selectivity index (SI), indicative of the therapeutic window of the compound, is calculated as CC50/EC50.
# (§5) Compounds were analysed in the replicon assay using Huh5.2 cells as described in the General Methods.
# [2] = Microsome stability assay, human liver microsomes; type: in vitro ADME; conditions: for stability in human liver microsomes compared to sanglifehrin A (in words): compared to sanglifehrin A (5)
# Protocol: (§6) Mouse or human liver microsomes were diluted with buffer C (0.1 M Potassium Phosphate buffer, 1.0 mM EDTA, pH 7.4) to a concentration of 2.5 mg/mL. Microsomal stability samples were then prepared by adding 50 uL of 5 uM compound spiking solution (0.5 uL 10 mM DMSO stock solution in 9.5 uL ACN, added to 990 uL Buffer C) to 50 μL of microsomal solution (2.5 mg/mL), 110 uL Buffer C and mixed well. All samples were pre-incubated for approximately 15 minutes at 37° C. Following this, the reaction was initiated by adding 40 uL of the NADPH solution (12.5 mM) with gentle mixing. Aliquots (40 uL) were removed at 0, 15, 30, 45 and 60 minutes and quenched with ACN containing internal standard (120 uL). Protein was removed by centrifugation (4000 rpm, 15 min) and the sample plate analysed for compound concentration by LC-MS/MS. Half-lives were then calculated by standard methods, comparing the concentration of analyte wth the amount originally present.
# (§7) Stability of the compounds in human and mouse liver microsomes was analysed as described in the General Methods. Sanglifehrin A, 5 was included as a comparison.
# [3] = Microsome stability assay, mouse liver microsomes; type: in vitro ADME; conditions: for stability in mouse liver microsomes compared to sanglifehrin A (in words): compared to sanglifehrin A (5)
# Protocol: as §6, §7
# [4] = system: HCV genotype 1b I389Iuc-ubi-neo/NS3-3′/5.1 replicon in Huh5.2 cells; assay: microbe, parasite or virus in culture; type: cell-based, Hepatitis C Virus; conditions: for Selectivity index (CC50/EC50): Huh5.2 replicon assay
# Protocol: as §1, §2
# For the evaluation of antiviral effects, assay medium is aspirated and the cell monolayers are washed with PBS. The wash buffer is aspirated, 25 uL of Glo Lysis Buffer (Cat. No. E2661, Promega) is added after which lysis is allowed to proceed for 5 min at room temperature. Subsequently, 50 uL of Luciferase Assay System (Cat. No. E1501, Promega) is added and the luciferase luminescence signal is quantified immediately (1000 ms integration time/well, Safire^2, Tecan). Relative luminescence units are converted to percentage of untreated controls.
# as §4, §5
# [5] = in vitro; conditions: human
# Protocol: as §1, §2, §3, §4, §5
# [6] = system: HBV; conditions: cited from earlier work
# [7] = system: HIV-1; conditions: clinical, cited from earlier work
# [8] = human, in vivo; cited from earlier work
# [9] = molecular target: cyclophilin A (CyPA) (Homo sapiens, UniProt P62937); conditions: relative to CsA; cited from earlier work
# [10] = human liver microsomes, NADPH, 37° C.
# [11] = mouse liver microsomes, NADPH, 37° C.
# [12] = Huh5.2 cells, HCV genotype 1b replicon, 72 hours, luciferase signal, read-out: EC50
# [13] = pH 7.4, human liver microsomes, NADPH, 37° C.
# [14] = pH 7.4, mouse liver microsomes, NADPH, 37° C.
# [15] = Hepatitis C virus, Huh-5-2, Huh5.2 cells, HCV genotype 1b replicon, 72 hours, luciferase signal, read-out: EC50
# cyclophilin A (CyPA), sequence (P62937 whole entry): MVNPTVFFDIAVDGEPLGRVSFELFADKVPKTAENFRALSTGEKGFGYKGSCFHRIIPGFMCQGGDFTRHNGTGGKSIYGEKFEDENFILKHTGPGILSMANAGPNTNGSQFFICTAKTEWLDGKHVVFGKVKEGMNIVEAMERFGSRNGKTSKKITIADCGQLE
Compound,stability in human liver microsomes compared to sanglifehrin A (in words) [2],CC50 [5],"half-life [2, 13]",stability in mouse liver microsomes compared to sanglifehrin A (in words) [3],"half-life [3, 14]",potency in the Huh5.2 replicon assay (in words) [4],"EC50 [4, 15]",Selectivity index (CC50/EC50) [4],also measured
58-des(3-hydroxyphenyl)-58-(3-hydroxy(2-pyridyl)-sanglifehrin A [Compound 19],increased stability,–,–,–,–,–,–,–,"CC50 [1]: 48.1 µM; Human liver microsome half life [2, 10]: 10.37 min; Mouse liver microsome half life [3, 11]: 4.71 min; EC50 [4, 12]: 24.3 µM"
"CC[C@H]1C[C@H](C)[C@@]2(NC1=O)O[C@@H](C[C@H](O)[C@@H](C)CC/C=C/C=C(\C)[C@@H]1C/C=C/C=C/[C@H](O)[C@H](C)[C@@H](O)[C@@H](CCC(C)=O)C(=O)N[C@@H](C(C)C)C(=O)N[C@@H](Cc3cc(O)cc(F)c3)C(=O)N3CCCC(N3)C(=O)O1)[C@H](C)[C@H](O)[C@@H]2C (stereo partly shown) [Compound 14, 63-Fluoro Sanglifehrin a]",increased stability,12.8 µM,9.32 min,more stable,9.78 min,very potent,0.135 µM,121,–
"CC[C@H]1C[C@H](C)[C@@]2(NC1=O)O[C@@H](C[C@H](O)[C@@H](C)CC/C=C/C=C(\C)[C@@H]1C/C=C/C=C/[C@H](O)[C@H](C)[C@@H](O)[C@@H](CCC(C)=O)C(=O)N[C@@H](C(C)C)C(=O)N[C@@H](Cc3cc(O)c(F)c(F)c3)C(=O)N3CCCC(N3)C(=O)O1)[C@H](C)[C@H](O)[C@@H]2C (stereo partly shown) [Compound 15, 62,63-Fluoro Sanglifehrin A]",increased stability,16.6 µM,10.8 min,more stable,9.22 min,very potent,0.195 µM,88,–
"CC[C@H]1C[C@H](C)[C@@]2(NC1=O)O[C@@H](C[C@H](O)[C@@H](C)CC/C=C/C=C(\C)[C@@H]1C/C=C/C=C/[C@H](O)[C@H](C)[C@@H](O)[C@@H](CCC(C)=O)C(=O)N[C@@H](C(C)C)C(=O)N[C@@H](Cc3ccc(F)c(O)c3)C(=O)N3CCCC(N3)C(=O)O1)[C@H](C)[C@H](O)[C@@H]2C (stereo partly shown) [Compound 16, 62-Fluoro Sanglifehrin A]",increased stability,29.7 µM,6.61 min,–,5.48 min,very potent,0.89 µM,32,–
"CC[C@H]1C[C@H](C)[C@@]2(NC1=O)O[C@@H](C[C@H](O)[C@@H](C)CC/C=C/C=C(\C)[C@@H]1C/C=C/C=C/[C@H](O)[C@H](C)[C@@H](O)[C@@H](CCC(C)=O)C(=O)N[C@@H](C(C)C)C(=O)N[C@@H](Cc3ccc(C)c(O)c3)C(=O)N3CCCC(N3)C(=O)O1)[C@H](C)[C@H](O)[C@@H]2C (stereo partly shown) [Compound 17, 62-Methyl Sanglifehrin A]",increased stability,11.6 µM,9.5 min,more stable,9.67 min,very potent,0.083 µM,143,–
"CC[C@H]1C[C@H](C)[C@@]2(NC1=O)O[C@@H](C[C@H](O)[C@@H](C)CC/C=C/C=C(\C)[C@@H]1C/C=C/C=C/[C@H](O)[C@H](C)[C@@H](O)[C@@H](CCC(C)=O)C(=O)N[C@@H](C(C)C)C(=O)N[C@@H](Cc3ccccc3)C(=O)N3CCCC(N3)C(=O)O1)[C@H](C)[C@H](O)[C@@H]2C (stereo partly shown) [Compound 18, 61-Deshydroxy Sanglifehrin A]",increased stability,11.7 µM,–,–,–,–,3.4 µM,–,"half-life at 1 µM [2, 13]: 7.64 min; half-life at 1 µM [3, 14]: 3.46 min"
"C/C=C/CC(C)C(O)C1C(=O)NC(CC)C(=O)N(C)CC(=O)N(C)C(CC(C)C)C(=O)NC(C(C)C)C(=O)N(C)C(CC(C)C)C(=O)NC(C)C(=O)NC(C)C(=O)N(C)C(CC(C)C)C(=O)N(C)C(CC(C)C)C(=O)N(C)C(C(C)C)C(=O)N1C (stereo not shown) [Cyclosporine A, 1, Cyclosporine A, reference compound]",–,–,–,–,–,less potent,–,–,"IC50 against HBV ([6]; Xie et al., 2007): > 1.3 µg/mL; EC50 ([4]; Hepatitis C virus, Huh-5-2, 72 h): 0.2 µM"
C/C=C/C[C@@H](C)[C@@H](O)[C@H]1C(=O)N[C@@H](CC)C(=O)N(C)[C@H](C)C(=O)N(CC)[C@@H](C(C)C)C(=O)N[C@@H](C(C)C)C(=O)N(C)[C@@H](CC(C)C)C(=O)N[C@@H](C)C(=O)N[C@H](C)C(=O)N(C)[C@@H](CC(C)C)C(=O)N(C)[C@@H](CC(C)C)C(=O)N(C)[C@@H](C(C)C)C(=O)N1C [DEBIO-025],–,–,–,–,–,–,–,–,"IC50 ([6]; Ptak et al. 2008, read-out: IC50 against HBV): 4.1 µM; reduction of HIV-1 RNA levels (in words) ([7]; 27 of the treated patients (Steyn et al., 2006)): no reduction; reduction of HIV-1 RNA levels ([7]; in nine patients (Steyn et al., 2006)): ≥ 0.5 log 10 copies/mL; reduction of HIV-1 RNA levels ([7]; in two patients (Steyn et al., 2006)): > 1 log 10 copies/mL; discontinuation of treatment caused by hyperbilirubinemia [8]: 4 out of 16"
"CC(=O)CC[C@H]1C(=O)N[C@@H](C(C)C)C(=O)N[C@@H](Cc2cccc(O)c2)C(=O)N2CCC[C@H](N2)C(=O)O[C@H](/C(C)=C/CO)C/C=C/C=C/[C@H](O)[C@H](C)[C@H]1O [Hydroxymacrocycle, 6, reference compound]",–,83.6 µM,–,–,–,–,8.4 µM,9.9,–
"CC[C@H]1C[C@H](C)[C@@]2(NC1=O)O[C@@H](C[C@H](O)[C@@H](C)CC/C=C/C=C(\C)[C@@H]1C/C=C/C=C/[C@H](O)[C@H](C)[C@@H](O)[C@@H](CCC(C)=O)C(=O)N[C@@H](C(C)C)C(=O)N[C@@H](Cc3cccc(O)c3)C(=O)N3CCC[C@H](N3)C(=O)O1)[C@H](C)[C@H](O)[C@@H]2C [Sanglifehrin A, 5, Sanglifehrin A, reference compound]",–,–,–,–,–,less potent,–,–,"CC50 [1]: 9.1 µM; Human liver microsome half life [2, 10]: 6.38 min; Mouse liver microsome half life [3, 11]: 6.15 min; higher affinity for CyPA compared to CsA [9]: approximately 20 fold; EC50 [4, 12]: 0.318 µM"
